This note sets out measurements from US20240425524A1, “SPIROTRICYCLE RIPK1 INHIBITORS AND METHODS OF USES THEREOF” (Merck Sharp & Dohme LLC, priority 2021, published 2024).

The target of this assay is RIPK1 (Homo sapiens (Human), UniProt Q13546). Kind of assay: RIPK1-ADP-Glo Enzymatic Assay. The assay is classed as biochemical. Conditions: recombinant GST-RIPK1 kinase domain (residues 1-327), 25 nM, ten-point titration, 30 minutes pre-incubation. A digest of the protocol: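 GST-RIPK1 kinase domain (residues 1-327, Sf21-expressed; 25 nM final) was pre-incubated 30 min at ambient temperature with compound (10-point 1:3 series from 100000 nM, 1% DMSO) in HEPES pH 7.3 buffer with 20 mM MgCl2. The reaction was started with 900 μM ATP (addition solution) and 3 μM dephosphorylated MBP and ran 150 min. Read-out was ADP-Glo luminescence, with EC50 from a four-parameter fit.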
Sequence of RIPK1 (Q13546 1-327): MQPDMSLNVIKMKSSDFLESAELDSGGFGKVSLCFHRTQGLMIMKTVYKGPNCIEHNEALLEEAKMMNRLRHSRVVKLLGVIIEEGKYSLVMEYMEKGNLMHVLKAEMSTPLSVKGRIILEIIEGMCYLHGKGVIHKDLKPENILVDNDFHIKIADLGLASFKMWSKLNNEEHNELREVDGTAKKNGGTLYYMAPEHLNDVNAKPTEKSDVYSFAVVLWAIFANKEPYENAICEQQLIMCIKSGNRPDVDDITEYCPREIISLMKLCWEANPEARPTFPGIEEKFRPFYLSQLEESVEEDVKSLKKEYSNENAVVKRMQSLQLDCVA
(In general: In ADP-Glo the light output rises with the ADP produced.)
Consider `O=C(c1ccccc1)N1CCC2(CC1)CN1CC[C@@H](c3cc(F)cc(F)c3)N1C2=O` [Example 5.1], for which the EC50 (usually the midpoint of the concentration-response curve) worked out at 0.013 µM.
With `COC(=O)N1CCC2(CC1)CN1CC[C@@H](c3cc(F)cc(F)c3)N1C2=O` [Example 5.2, methyl (S)-7′-(3,5-difluorophenyl)-1′-oxodihydro-1′H,3′H,5′H-spiro [piperidine-4,2′-pyrazolo[1,2-a]pyrazole]-1-carboxylate] the figure was 0.139 µM.
For `O=C1N2[C@H](c3cc(F)cc(F)c3)CCN2CC12CCN(S(=O)(=O)c1ccccc1)CC2` [Example 5.3, (S)-7′-(3,5-difluorophenyl)-1-(phenylsulfonyl) dihydro-l′H,3′H,5′H-spiro[piperidine-4,2′-pyrazolo[1,2-a]pyrazol]-l′-one] the value was 0.83 µM.
For `O=C1N2[C@H](c3cc(F)cc(F)c3)CCN2CC12CCN(Cc1ccc3ccccc3n1)CC2` [Example 6.1, (S)-7′-(3,5-difluorophenyl)-1-(quinolin-2-ylmethyl) dihydro-1′H,3′H,5′H-spiro [piperidine-4,2′-pyrazolo[1,2-α]pyrazol]-1′-one] the value was 0.706 µM; for `N#Cc1ccc(N2CCC3(CC2)CN2CC[C@@H](c4cc(F)cc(F)c4)N2C3=O)n2nccc12` [Example 7.1], 0.006 µM; for `O=C1N2[C@H](c3cc(F)cc(F)c3)CCN2CC12CCN(c1ccc(Cl)c3ccnn13)CC2` [Example 8.1, (S)-1-(4-chloropyrazolo[1,5-α]pyridin-7-yl)-7′-(3,5-difluorophenyl) dihydro-1′H,3′H,5′H-spiro [piperidine-4,2′-pyrazolo[1,2-α]pyrazol]-1′-one], 0.007 µM.
As to `O=C1N2[C@H](c3cc(F)cc(F)c3)CCN2CC12CCN(c1cccc3ccnn13)CC2` [Example 8.2, (S)-7′-(3,5-difluorophenyl)-1-(pyrazolo[1,5-α]pyridin-7-yl) dihydro-1′H,3′H,5′H-spiro [piperidine-4,2′-pyrazolo[1,2-α]pyrazol]-1′-one], the EC50 turned out to be 0.034 µM.
For `Cc1ccc(N2CCC3(CC2)CN2CC[C@@H](c4cc(F)cc(F)c4)N2C3=O)n2nccc12` [Example 9.1, (S)-7′-(3,5-difluorophenyl)-1-(4-methylpyrazolo[1,5-α]pyridin-7-yl) dihydro-1′H,3′H,5′H-spiro [piperidine-4,2′-pyrazolo[1,2-α]pyrazol]-1′-one] the value was 0.017 µM.
With `O=C1N2[C@H](c3cc(F)cc(F)c3)CCN2CC12CCN(c1cccc(F)c1)CC2` [Example 10.1, (S)-7′-(3,5-difluorophenyl)-1-(3-fluorophenyl) dihydro-1′H,3′H,5′H-spiro [piperidine-4,2′-pyrazolo[1,2-α]pyrazol]-1′-one] the figure was 0.047 µM; with `O=C1N2[C@H](c3cc(F)cc(F)c3)CCN2CC12CCN(c1cncc(F)c1)CC2` [Example 10.2, (S)-7′-(3,5-difluorophenyl)-1-(5-fluoropyridin-3-yl)dihydro-1′H,3′H,5′H-spiro[piperidine-4,2′-pyrazolo[1,2-a]pyrazol]-l′-one], 0.338 µM; with `O=C1N2[C@H](c3cc(F)cc(F)c3)CCN2CC12CCN(c1ccc(F)cc1)CC2` [Example 10.3, (S)-7′-(3,5-difluorophenyl)-1-(4-fluorophenyl)dihydro-1′H,3′H,5′H-spiro[piperidine-4,2′-pyrazolo[1,2-a]pyrazol]-l′-one], 0.122 µM.
For `Cc1nc(N2CCC3(CC2)CN2CC[C@@H](c4cc(F)cc(F)c4)N2C3=O)ccc1Cl` [Example 11.1, (S)-1-(5-chloro-6-methylpyridin-2-yl)-7′-(3,5-difluorophenyl) dihydro-1′H,3′H,5′H-spiro [piperidine-4,2′-pyrazolo[1,2-α]pyrazol]-1′-one], the concentration giving a half-maximal response (EC50) came out at 0.023 µM.
For `Cc1nc(N2CCC3(CC2)CN2CC[C@@H](c4cc(F)cc(F)c4)N2C3=O)ccc1F` [Example 11.2, (S)-7′-(3,5-difluorophenyl)-1-(5-fluoro-6-methylpyridin-2-yl)dihydro-1′H,3′H,5′H-spiro[piperidine-4,2′-pyrazolo[1,2-a]pyrazol]-l′-one] the value was 0.043 µM.
